Assay results: patent publication US4859611A (priority 1986, dated 1989)

What was measured:
[1] = tested on: IgM antibody affinity matrix; format: binding, mouse
many animal species = settings: in vivo; cited from earlier work

For `COc1cc2c(c3oc(=O)c4c(c13)CCC4=O)[C@@H]1C=CO[C@@H]1O2` [AFB1, aflatoxin B1], the “capacity of affinity matrix to bind AFB1” value [1] is listed as 1.0 to 1.3 µg and the “toxic, mutagenic and carcinogenic effect” value (many animal species) is listed as “toxic, mutagenic and carcinogenic”.
